Laboratory results taken from PMC10329973 (Clinical pharmacology in drug development, 2023).

Tests used:
[1] = Multiple ascending dose study NP10679-102, plasma pharmacokinetics; assay type: in vivo; details: human, iv; for Cmax / Tmax: MAD; for half-life: T 1/2, MAD
healthy adult volunteers = assay: Single ascending dose study NP10679-101, safety and tolerability; assay type: in vivo
[2] = In vitro metabolic stability, hepatic microsomes; assay type: in vitro ADME, mice, rats, dogs, and humans; details: mouse, rat, dog, human, liver microsomes
Plasma protein binding = assay type: in vitro ADME, mice, rats, dogs, and humans; details: mouse, rat, dog, human
rats and dogs = assay: Repeat-dose toxicity studies of up to 14 days; assay type: in vivo; details: repeat-dose toxicity studies up to 14 days, dose-limiting effect in both species
CYP3A = details: ref unpublished data and Ref 35; cited from earlier work
over 40 CNS targets = details: cited from earlier work
hERG channel = details: read-out: IC50, hERG channel; cited from earlier work
GABAergic receptors = details: cited from earlier work
pre-clinical models = details: cited from earlier work
[3] = 25 mg, 25 mg IV once daily, day 1
[4] = 25 mg, 25 mg IV once daily, day 2
[5] = 25 mg, 25 mg IV once daily, day 3
[6] = 25 mg, 25 mg IV once daily, day 4
[7] = 25 mg, 25 mg IV once daily, day 5
[8] = 50 mg, 50 mg IV once daily, day 1
[9] = 50 mg, 50 mg IV once daily, day 2
[10] = 50 mg, 50 mg IV once daily, day 3
[11] = 50 mg, 50 mg IV once daily, day 4
[12] = 50 mg, 50 mg IV once daily, day 5
[13] = 100 mg, 100 mg IV once daily, day 1
[14] = 100 mg, 100 mg IV once daily, day 2
[15] = 100 mg, 100 mg IV once daily, day 3
[16] = 100 mg, 100 mg IV once daily, day 4
[17] = 100 mg, 100 mg IV once daily, day 5

Q: Which AUC(0-t) ([1]; 25 mg, AUC 0–24, MAD, 25 mg IV once daily, day 1) does the source give for `O=C1CCc2cc(OC[C@H](O)CN3CCN(c4ccc(C(F)(F)F)cc4)CC3)ccc2N1` [NP10679, (R)-6-(2-Hydroxy-3-(4-(4-(trifluoromethyl)phenyl)piperazin-1-yl)propoxy)-3,4-dihydroquinolin-2(1H)-one] here?
A: Its AUC(0-t) is 1470 ± 186 ng·h/mL.

Q: What about the AUC(0-t) ([1]; 25 mg, AUC 0–24, MAD, 25 mg IV once daily, day 2) of the same compound?
A: Its AUC(0-t) is 1920 ± 305 ng·h/mL.

Q: And the AUC(0-t) ([1]; 25 mg, AUC 0–24, MAD, 25 mg IV once daily, day 3)?
A: The AUC(0-t) was 2090 ± 303 ng·h/mL.

Q: And the AUC(0-t) ([1]; 25 mg, AUC 0–24, MAD, 25 mg IV once daily, day 4)?
A: Its AUC(0-t) is 2170 ± 397 ng·h/mL.

Q: What about the AUC(0-t) ([1]; 25 mg, AUC 0–24, MAD, 25 mg IV once daily, day 5) of the same compound?
A: Its AUC(0-t) is 2260 ± 478 ng·h/mL.

Q: What about the AUC(0-t) ([1]; 25 mg, AUC 0–96, MAD, 25 mg IV once daily, day 5) of the same compound?
A: Its AUC(0-t) is 3880 ± 1140 ng·h/mL.

Q: And the Cmax [1, 3]?
A: Its Cmax is 208 ± 72 ng/mL.

Q: What about the Cmax [1, 4] of the same compound?
A: Its Cmax is 211 ± 57 ng/mL.

Q: What about the Cmax [1, 5] of the same compound?
A: Its Cmax is 207 ± 35 ng/mL.

Q: What about the Cmax [1, 6] of the same compound?
A: The Cmax was 250 ± 34 ng/mL.

Q: And the Cmax [1, 7]?
A: Its Cmax is 213 ± 26 ng/mL.

Q: What about the half-life [1, 3] of the same compound?
A: Its half-life is 15 ± 3 h.

Q: What about the half-life [1, 4] of the same compound?
A: Its half-life is 17 ± 2 h.

Q: What about the half-life [1, 5] of the same compound?
A: The half-life was 16 ± 3 h.

Q: What about the half-life [1, 6] of the same compound?
A: Its half-life is 19 ± 5 h.

Q: And the half-life [1, 7]?
A: The half-life was 36 ± 15 h.

Q: And the Tmax [1, 3]?
A: The Tmax was 0.5 h.

Q: And the Tmax [1, 4]?
A: The Tmax was 0.9 ± 0.8 h.

Q: What about the Tmax [1, 5] of the same compound?
A: Its Tmax is 0.8 ± 0.4 h.

Q: And the Tmax [1, 6]?
A: Its Tmax is 0.5 h.

Q: And the Tmax [1, 7]?
A: Its Tmax is 0.5 h.

Q: And the AUC(0-t) ([1]; 50 mg, AUC 0–24, MAD, 50 mg IV once daily, day 1)?
A: The AUC(0-t) was 2650 ± 283 ng·h/mL.

Q: What about the AUC(0-t) ([1]; 50 mg, AUC 0–24, MAD, 50 mg IV once daily, day 2) of the same compound?
A: The AUC(0-t) was 3300 ± 479 ng·h/mL.

Q: What about the AUC(0-t) ([1]; 50 mg, AUC 0–24, MAD, 50 mg IV once daily, day 3) of the same compound?
A: Its AUC(0-t) is 3890 ± 424 ng·h/mL.

Q: What about the AUC(0-t) ([1]; 50 mg, AUC 0–24, MAD, 50 mg IV once daily, day 4) of the same compound?
A: Its AUC(0-t) is 4110 ± 485 ng·h/mL.

Q: What about the AUC(0-t) ([1]; 50 mg, AUC 0–24, MAD, 50 mg IV once daily, day 5) of the same compound?
A: The AUC(0-t) was 4290 ± 500 ng·h/mL.

Q: And the AUC(0-t) ([1]; 50 mg, AUC 0–96, MAD, 50 mg IV once daily, day 5)?
A: Its AUC(0-t) is 6960 ± 1170 ng·h/mL.

Q: And the Cmax [1, 8]?
A: The Cmax was 376 ± 99 ng/mL.

Q: And the Cmax [1, 9]?
A: Its Cmax is 276 ± 60 ng/mL.

Q: What about the Cmax [1, 10] of the same compound?
A: Its Cmax is 335 ± 73 ng/mL.

Q: And the Cmax [1, 11]?
A: Its Cmax is 389 ± 116 ng/mL.

Q: What about the Cmax [1, 12] of the same compound?
A: Its Cmax is 394 ± 72 ng/mL.

Q: What about the half-life [1, 8] of the same compound?
A: Its half-life is 18 ± 4 h.

Q: And the half-life [1, 9]?
A: The half-life was 18 ± 3 h.

Q: What about the half-life [1, 10] of the same compound?
A: Its half-life is 26 ± 16 h.

Q: And the half-life [1, 11]?
A: The half-life was 16 ± 1 h.

Q: What about the half-life [1, 12] of the same compound?
A: Its half-life is 21 ± 3 h.

Q: And the Tmax [1, 8]?
A: Its Tmax is 0.8 ± 0.8 h.

Q: What about the Tmax [1, 9] of the same compound?
A: The Tmax was 1 ± 0.4 h.

Q: What about the Tmax [1, 10] of the same compound?
A: The Tmax was 0.8 ± 0.5 h.

Q: And the Tmax [1, 11]?
A: Its Tmax is 0.8 ± 0.5 h.

Q: And the Tmax [1, 12]?
A: Its Tmax is 0.7 ± 0.4 h.

Q: And the AUC(0-t) ([1]; 100 mg, AUC 0–24, MAD, 100 mg IV once daily, day 1)?
A: Its AUC(0-t) is 5630 ± 625 ng·h/mL.

Q: And the AUC(0-t) ([1]; 100 mg, AUC 0–24, MAD, 100 mg IV once daily, day 2)?
A: The AUC(0-t) was 7320 ± 279 ng·h/mL.

Q: And the AUC(0-t) ([1]; 100 mg, AUC 0–24, MAD, 100 mg IV once daily, day 3)?
A: Its AUC(0-t) is 8710 ± 458 ng·h/mL.

Q: What about the AUC(0-t) ([1]; 100 mg, AUC 0–24, MAD, 100 mg IV once daily, day 4) of the same compound?
A: Its AUC(0-t) is 9510 ± 1200 ng·h/mL.

Q: What about the AUC(0-t) ([1]; 100 mg, AUC 0–24, MAD, 100 mg IV once daily, day 5) of the same compound?
A: The AUC(0-t) was 8980 ± 376 ng·h/mL.

Q: And the AUC(0-t) ([1]; 100 mg, AUC 0–96, MAD, 100 mg IV once daily, day 5)?
A: The AUC(0-t) was 13900 ± 962 ng·h/mL.

Q: What about the Cmax [1, 13] of the same compound?
A: Its Cmax is 1240 ± 1150 ng/mL.

Q: What about the Cmax [1, 14] of the same compound?
A: The Cmax was 570 ± 29 ng/mL.

Q: And the Cmax [1, 15]?
A: The Cmax was 812 ± 190 ng/mL.

Q: And the Cmax [1, 16]?
A: The Cmax was 873 ± 236 ng/mL.

Q: What about the Cmax [1, 17] of the same compound?
A: The Cmax was 1080 ± 295 ng/mL.

Q: And the half-life [1, 13]?
A: The half-life was 22 ± 5 h.

Q: And the half-life [1, 14]?
A: The half-life was 22 ± 5 h.

Q: What about the half-life [1, 15] of the same compound?
A: Its half-life is 22 ± 5 h.

Q: And the half-life [1, 16]?
A: Its half-life is 34 ± 28 h.

Q: What about the half-life [1, 17] of the same compound?
A: Its half-life is 13 ± 5 h.

Q: And the Tmax [1, 13]?
A: The Tmax was 0.5 h.

Q: And the Tmax [1, 14]?
A: Its Tmax is 0.8 ± 0.3 h.

Q: And the Tmax [1, 15]?
A: Its Tmax is 0.5 h.

Q: What about the Tmax [1, 16] of the same compound?
A: Its Tmax is 0.6 ± 0.3 h.

Q: What about the Tmax [1, 17] of the same compound?
A: Its Tmax is 0.5 h.

Q: What about the “dissociative symptoms or cognitive impairment (CADSS, DSST)” value (healthy adult volunteers; SAD) of the same compound?
A: Its value is “no evidence”.

Q: What about the “serious adverse events (SAEs)” value (healthy adult volunteers; SAD) of the same compound?
A: The value was “No serious adverse events”.

Q: What about the “vital signs or ECGs” value (healthy adult volunteers; SAD) of the same compound?
A: Its value is “no clinically significant changes”.

Q: And the “changes in mean values of HDRS, MMSE, SBQ-R, GAD-7 and CADSS” value (healthy adult volunteers; SAD study)?
A: Its value is “no detectable changes”.

Q: And the “subjects reaching a level 3 score on the MOAA/S” value (healthy adult volunteers; SAD, 200 mg)?
A: Its value is “no subject”.

Q: What about the “subjects with conjunctival and scleral hyperemia” value (healthy adult volunteers; SAD, 200 mg) of the same compound?
A: The value was 3 of 6.

Q: And the “subjects presenting with somnolence” value (healthy adult volunteers; SAD, at doses of 50 mg - 200 mg)?
A: The value was 5 of 6.

Q: What about the “subjects presenting with somnolence” value (healthy adult volunteers; SAD, at each of doses 5 and 15 mg) of the same compound?
A: Its value is “One of 6”.

Q: What about the “blood pressure (both systolic and diastolic)” value (healthy adult volunteers; SAD, highest two doses) of the same compound?
A: Its value is “non-clinically significant lower blood pressure”.

Q: And the “subjects describing intrusive thoughts” value (healthy adult volunteers; SAD, single 150 mg dose)?
A: The value was “one subject”.

Q: And the “Bond-Lader VAS scale” value (healthy adult volunteers; SAD, starting at 50 mg through 200 mg)?
A: The value was “moderate increases”.

Q: And the half-life [2]?
A: The half-life was over 2 h.

Q: What about the fraction unbound (Plasma protein binding) of the same compound?
A: Its fraction unbound is 0.01 to 0.026.

Q: What about the “adverse effect directly related to IV administration” value (rats and dogs) of the same compound?
A: Its value is “sedation”.

Q: And the “time-dependent inhibition of CYP3A” value (CYP3A)?
A: Its value is “does not lead to significant time-dependent inhibition”.

Q: And the “activity at over 40 CNS targets” value (over 40 CNS targets)?
A: Its value is “lacks demonstrable activity”.

Q: What about the IC50 (hERG channel) of the same compound?
A: The IC50 was 620 nM.

Q: And the “activity at GABAergic receptors” value (GABAergic receptors)?
A: Its value is “does not have activity”.

Q: What about the “somnolence in pre-clinical models” value (pre-clinical models) of the same compound?
A: The value was “leads to somnolence at doses above those necessary to achieve efficacy”.
